“Also recorded” adds a separate entry of the source.
Key:
Type in all cases: cell-based, human
Details in all cases: treated 1 h (menadione 100 μmol/L, 30 min)
DLD‐1 CRC cell line = experiment: intracellular ROS, CellROX Deep Red flow cytometry, DLD-1
Protocol: In order to estimate the effect of each inhibitor described above, intracellular reactive oxygen species (ROS) were measured using CellROX™ Deep Red reagent (Molecular Probes). Briefly, cells were seeded on 6‐well plates at 1 × 10^6 cells per well. After cells reached 90% confluence, cells were treated with designated reagents for 1 h. CellROX™ Deep Red reagent was added at a final concentration of 5 μmol/L to the culture medium and then incubated for 30 min at 37°C. Subsequently, the medium was removed and the cells were washed with PBS and detached using 0.25% trypsin‐EDTA. The resulting fluorescence was measured using a FACS Calibur flow cytometer (Becton Dickinson, Franklin Lakes, NJ). Menadione (100 μmol/L) was added 30 min before CellROX™ Deep Red reagent treatment as a reference ROS inducer. […] CD44v9 positivity of CTOS cells was analyzed as follows: Cancer spheroids were dispersed with serial treatments of TrypLE™ (20 min, GIBCO) and Accumax™ (10 min, Innovative Cell Technologies, San Diego, CA). Cell surface CD44v9 was stained with CD44v9 antibody (Cosmobio) as well as PE‐conjugated anti‐rat IgG2a (Becton Dickinson). The fluorescence was measured using a FACS Calibur flow cytometer (Becton Dickinson). […]
One hour after each drug treatment, cells were stained with CellROX DeepRed and intracellular ROS were quantified with FACS. […]

[1] = test system: TIG‐3 embryonic fibroblasts; experiment: intracellular ROS, CellROX Deep Red flow cytometry, TIG-3
Protocol: (§1) In order to estimate the effect of each inhibitor described above, intracellular reactive oxygen species (ROS) were measured using CellROX™ Deep Red reagent (Molecular Probes). Briefly, cells were seeded on 6‐well plates at 1 × 10^6 cells per well. After cells reached 90% confluence, cells were treated with designated reagents for 1 h. CellROX™ Deep Red reagent was added at a final concentration of 5 μmol/L to the culture medium and then incubated for 30 min at 37°C. Subsequently, the medium was removed and the cells were washed with PBS and detached using 0.25% trypsin‐EDTA. The resulting fluorescence was measured using a FACS Calibur flow cytometer (Becton Dickinson, Franklin Lakes, NJ). Menadione (100 μmol/L) was added 30 min before CellROX™ Deep Red reagent treatment as a reference ROS inducer. […] CD44v9 positivity of CTOS cells was analyzed as follows: Cancer spheroids were dispersed with serial treatments of TrypLE™ (20 min, GIBCO) and Accumax™ (10 min, Innovative Cell Technologies, San Diego, CA). Cell surface CD44v9 was stained with CD44v9 antibody (Cosmobio) as well as PE‐conjugated anti‐rat IgG2a (Becton Dickinson). The fluorescence was measured using a FACS Calibur flow cytometer (Becton Dickinson). Since CTOSs contained abundant auto‐fluorescent cells, we defined FL2^+FL1^− cells as authentic PE‐positive (Fig. S4). Thus, CD44v9‐positive rate was defined as FL2^+FL1^−/total live cells and CD44v9‐positive fraction was further gated and split between CD44v9^low and CD44v9^high (Fig. S4), to calculate the mean fluorescent intensity of CD44v9^high fraction.
(§2) One hour after each drug treatment, cells were stained with CellROX DeepRed and intracellular ROS were quantified with FACS. Upper: histogram of fluorescent signal is represented. Lower. representative mean fluorescent intensity scores are shown. Note that without drug treatment (Control), intracellular ROS is higher in OUMS36 and TIG3 (embryonic fibroblasts) but lower in DLD-1 and HCT116 (CRC cell lines). ROS in DLD-1 was increased by auranofin. ROS in HCT116 was increased by all the inhibitors tested. […]

[2] = test system: OUMS‐36 embryonic fibroblasts; experiment: intracellular ROS, CellROX Deep Red flow cytometry, OUMS-36
Protocol: as §1, §2

For `CC[PH](CC)(CC)[Au][S][C@@H]1O[C@H](COC(C)=O)[C@@H](OC(C)=O)[C@H](OC(C)=O)[C@H]1OC(C)=O` [Aura, Auranofin], the “intracellular ROS response” value (DLD‐1 CRC cell line) was “increased; also recorded: increase of ROS”.

With `COc1cc(/C=C/C(=O)N2CCC=CC2=O)cc(OC)c1OC` [Pipe, Piperlongumine] the “intracellular ROS response” value [1] was “no ROS increase” and the “intracellular ROS response” value [2] was “no ROS increase”.
